Results from ChEMBL document CHEMBL1201862, “PubChem BioAssay data set” (2004).
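Dose response: 5 concentrations. Exposure: 48 h. Format: 96-well plates. Endpoint: linear interpolation; highest concentration if not reached. GI50 = concentration required for 50% inhibition of growth.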 Active and inactive are the calls of the source. Rule as the data show it: active = GI50 up to about 1.1 µM and inactive = higher. Square brackets hold non-standard residues; d marks the D form. Peptide text beside a SMILES is read from it. pGlu = O=C1CC[CH](C(=O)O)N1

Columns and labels:
Assay in all cases: inhibition of tumour cell growth, NCI panel, 48 h
EKVX = test system: EKVX
CAKI-1 = test system: CAKI-1
RPMI-8226 = test system: RPMI-8226
UO-31 = test system: UO-31
UACC-257 = test system: UACC-257
OVCAR-4 = test system: OVCAR-4
IGROV-1 = test system: IGROV-1
SNB-19 = test system: SNB-19
HL-60 = test system: HL-60
A498 = test system: A498
SK-MEL-5 = test system: SK-MEL-5
OVCAR-3 = test system: OVCAR-3
A549 = test system: A549
MOLT-4 = test system: MOLT-4
MDA-MB-435 = test system: MDA-MB-435
U-251 = test system: U-251
SF-539 = test system: SF-539
UACC-62 = test system: UACC-62
BT-549 = test system: BT-549

Compound	GI50 (EKVX)	GI50 (CAKI-1)	GI50 (RPMI-8226)	GI50 (UO-31)	GI50 (UACC-257)	GI50 (OVCAR-4)	GI50 (IGROV-1)	GI50 (SNB-19)	GI50 (HL-60)	GI50 (A498)	GI50 (SK-MEL-5)	GI50 (OVCAR-3)	GI50 (A549)	GI50 (MOLT-4)	GI50 (MDA-MB-435)	GI50 (U-251)	GI50 (SF-539)	GI50 (UACC-62)	GI50 (BT-549)
CCN1C(c2ccccc2)=CC(c2ccccc2)(C(Cl)(Cl)Cl)C=C1c1ccccc1	4.22 µM (inactive)	30.8 µM (inactive)	2.22 µM (inactive)	34.6 µM (inactive)	4.56 µM (inactive)	24 µM (inactive)	4.7 µM (inactive)	4.46 µM (inactive)	1.1 µM (active)	17.3 µM (inactive)	1.7 µM (inactive)	7 µM (inactive)	32.4 µM (inactive)	10.9 µM (inactive)	2.74 µM (inactive)	6.01 µM (inactive)	15.6 µM (inactive)	–	–
Cc1cc(=O)oc2c(CNC(CC(C)C)C(=O)O)c(O)ccc12 (stereo unspecified)	> 100 µM (inactive)	> 100 µM (inactive)	> 100 µM (inactive)	> 100 µM (inactive)	> 100 µM (inactive)	> 100 µM (inactive)	> 100 µM (inactive)	> 100 µM (inactive)	> 100 µM (inactive)	–	> 100 µM (inactive)	> 100 µM (inactive)	> 100 µM (inactive)	> 100 µM (inactive)	> 100 µM (inactive)	> 100 µM (inactive)	> 100 µM (inactive)	> 100 µM (inactive)	–
CC(=O)/N=C1\NC(=O)/C(=C/c2ccc(Cl)cc2Cl)N1C	1.02 µM (active)	> 100 µM (inactive)	–	> 100 µM (inactive)	> 100 µM (inactive)	55.1 µM (inactive)	32.6 µM (inactive)	47.6 µM (inactive)	0.277 µM (active)	–	35.7 µM (inactive)	96.4 µM (inactive)	> 100 µM (inactive)	7.76 µM (inactive)	97.5 µM (inactive)	19.5 µM (inactive)	77.4 µM (inactive)	9.04 µM (inactive)	87.7 µM (inactive)
CC(NC(=O)C(Cc1c[nH]cn1)NC(=O)C1CCC(=O)N1)C(N)=O (stereo not drawn) ([pGlu]-His-Ala-NH2; configuration not given here)	> 100 µM (inactive)	–	> 100 µM (inactive)	> 100 µM (inactive)	–	–	> 100 µM (inactive)	> 100 µM (inactive)	> 100 µM (inactive)	–	> 100 µM (inactive)	> 100 µM (inactive)	> 100 µM (inactive)	> 100 µM (inactive)	> 100 µM (inactive)	> 100 µM (inactive)	–	> 100 µM (inactive)	> 100 µM (inactive)
CN(C)CCCNC(=O)CCNC(=O)c1cc(NC(=O)c2cc(NC(=O)c3cc(NC(=O)c4nc(NC(=O)CCCNC(=O)c5cc(NC(=O)c6cc(NC(=O)c7cc(NC(=O)c8nccn8C)cn7C)cn6C)cn5C)cn4C)cn3C)cn2C)cn1C	> 100 µM (inactive)	> 100 µM (inactive)	> 100 µM (inactive)	> 100 µM (inactive)	> 100 µM (inactive)	> 100 µM (inactive)	> 100 µM (inactive)	> 100 µM (inactive)	> 100 µM (inactive)	> 100 µM (inactive)	> 100 µM (inactive)	> 100 µM (inactive)	> 100 µM (inactive)	> 100 µM (inactive)	> 100 µM (inactive)	> 100 µM (inactive)	> 100 µM (inactive)	–	–
NC(=O)C1N=NSC1NC(=O)c1ccc([N+](=O)[O-])cc1 (stereo unspecified)	30 µM (inactive)	63.5 µM (inactive)	26.4 µM (inactive)	40.6 µM (inactive)	> 100 µM (inactive)	43.3 µM (inactive)	22.4 µM (inactive)	50.6 µM (inactive)	–	–	22 µM (inactive)	30.4 µM (inactive)	27 µM (inactive)	49.2 µM (inactive)	46.5 µM (inactive)	36.6 µM (inactive)	–	49.4 µM (inactive)	48.2 µM (inactive)
COc1ccc(-c2c3c(n(C4OC(COC(C)=O)C(OC(C)=O)C(OC(C)=O)C4OC(C)=O)c(=S)c2C#N)CCCC3)cc1 (stereo unspecified)	53 µM (inactive)	20.5 µM (inactive)	–	64.7 µM (inactive)	> 100 µM (inactive)	25.5 µM (inactive)	28.8 µM (inactive)	24.7 µM (inactive)	62.5 µM (inactive)	15.2 µM (inactive)	34.4 µM (inactive)	19.6 µM (inactive)	64.1 µM (inactive)	27.6 µM (inactive)	> 100 µM (inactive)	45 µM (inactive)	69.5 µM (inactive)	20 µM (inactive)	–
O=C(O)CSc1nnc(COc2ccc(Cl)cc2)n1-c1ccccc1	> 100 µM (inactive)	> 100 µM (inactive)	–	> 100 µM (inactive)	> 100 µM (inactive)	> 100 µM (inactive)	> 100 µM (inactive)	> 100 µM (inactive)	> 100 µM (inactive)	> 100 µM (inactive)	–	> 100 µM (inactive)	> 100 µM (inactive)	> 100 µM (inactive)	> 100 µM (inactive)	> 100 µM (inactive)	–	> 100 µM (inactive)	–
O=C(CCl)N1CCN(c2ccccc2)CC1	24.5 µM (inactive)	15.8 µM (inactive)	24.9 µM (inactive)	17.9 µM (inactive)	23.2 µM (inactive)	17.2 µM (inactive)	24.1 µM (inactive)	37.7 µM (inactive)	20 µM (inactive)	25.9 µM (inactive)	16.3 µM (inactive)	–	22.6 µM (inactive)	27.2 µM (inactive)	–	19.5 µM (inactive)	–	–	–
COC(=O)[C@]1(c2cc3ccccc3n2S(=O)(=O)c2ccccc2)CC2CCC1NC2 (stereo partly specified)	14.2 µM (inactive)	15.5 µM (inactive)	6.65 µM (inactive)	10.5 µM (inactive)	15.8 µM (inactive)	16.4 µM (inactive)	14 µM (inactive)	14.8 µM (inactive)	2.85 µM (inactive)	–	13 µM (inactive)	17 µM (inactive)	12.6 µM (inactive)	–	14.2 µM (inactive)	13.6 µM (inactive)	16.4 µM (inactive)	14.5 µM (inactive)	14.5 µM (inactive)
O=c1cccccc1O [TROPOLONE]	> 100 µM (inactive)	83.6 µM (inactive)	86.9 µM (inactive)	80.2 µM (inactive)	> 100 µM (inactive)	94 µM (inactive)	> 100 µM (inactive)	> 100 µM (inactive)	11.9 µM (inactive)	–	83 µM (inactive)	34 µM (inactive)	> 100 µM (inactive)	26.9 µM (inactive)	> 100 µM (inactive)	–	–	96.6 µM (inactive)	87.1 µM (inactive)
O=C(CC(C(=O)c1cccs1)c1cccs1)c1ccsc1 (stereo unspecified)	66.1 µM (inactive)	> 100 µM (inactive)	36.1 µM (inactive)	43.5 µM (inactive)	60 µM (inactive)	67.1 µM (inactive)	> 100 µM (inactive)	75.2 µM (inactive)	29 µM (inactive)	49.7 µM (inactive)	39.6 µM (inactive)	–	43.3 µM (inactive)	46.2 µM (inactive)	20.2 µM (inactive)	41.6 µM (inactive)	67 µM (inactive)	37.5 µM (inactive)	–
O=C1CSC(c2c[nH]c3ccccc23)N1c1cccc([N+](=O)[O-])c1 (stereo unspecified)	> 100 µM (inactive)	–	> 100 µM (inactive)	42.7 µM (inactive)	> 100 µM (inactive)	> 100 µM (inactive)	> 100 µM (inactive)	> 100 µM (inactive)	> 100 µM (inactive)	–	84.3 µM (inactive)	> 100 µM (inactive)	> 100 µM (inactive)	> 100 µM (inactive)	38.3 µM (inactive)	> 100 µM (inactive)	82 µM (inactive)	80.5 µM (inactive)	> 100 µM (inactive)
O=C(O)CCNc1ncc2c(n1)-c1ccccc1OC2	61.7 µM (inactive)	> 100 µM (inactive)	> 100 µM (inactive)	> 100 µM (inactive)	> 100 µM (inactive)	> 100 µM (inactive)	36.2 µM (inactive)	> 100 µM (inactive)	> 100 µM (inactive)	–	> 100 µM (inactive)	> 100 µM (inactive)	> 100 µM (inactive)	> 100 µM (inactive)	> 100 µM (inactive)	> 100 µM (inactive)	> 100 µM (inactive)	> 100 µM (inactive)	–
Cc1ccc(/C=c2\cc3oc(=O)c4cccc(c4-3)c2=O)cc1	> 100 µM (inactive)	> 100 µM (inactive)	31.2 µM (inactive)	> 100 µM (inactive)	> 100 µM (inactive)	> 100 µM (inactive)	88.3 µM (inactive)	> 100 µM (inactive)	39.1 µM (inactive)	> 100 µM (inactive)	–	72.1 µM (inactive)	–	> 10 µM (inactive)	> 100 µM (inactive)	63.7 µM (inactive)	> 100 µM (inactive)	> 100 µM (inactive)	–
O=C1c2ccccc2CC12Cc1cc3c(cc1C2=O)CCC3 (stereo unspecified)	> 100 µM (inactive)	> 100 µM (inactive)	43.6 µM (inactive)	> 100 µM (inactive)	> 100 µM (inactive)	> 100 µM (inactive)	> 100 µM (inactive)	> 100 µM (inactive)	> 100 µM (inactive)	> 100 µM (inactive)	> 100 µM (inactive)	> 100 µM (inactive)	> 100 µM (inactive)	> 100 µM (inactive)	> 100 µM (inactive)	> 100 µM (inactive)	> 100 µM (inactive)	–	–
